In patent publication US6337328B1, “Bupropion metabolites and methods of use” (priority 1999, dated 2002):
pIC50: −log10 of the molar value. Several values for one entry are separate records, joined by “and”; a condition that tells them apart may be missing. Identical values can stand only once.

Key:
Type in all cases: biochemical
[1] = biological target: T1, norepinephrine (NE) reuptake, rat hypothalamus (Rattus norvegicus, UniProt Q63380); test: Inhibition of norepinephrine (NE) reuptake, [3H]NE incorporation into synaptosomes; details: for NE reuptake Hill coefficient (nH): Hill equation curve fitting; for pIC50: [3H]NE 0.2 μCi/mL, 20 min/37° C.
T1 construct: using rat hypothalamus as a tissue source; from tissue; host or cells: rat hypothalamus synaptosomes
Procedure: (§1) Bupropion metabolites can be screened for their ability to inhibit the reuptake of the neuronal monoamines norepiniephrine (NE), dopaminc (DA), and serotonin (5-HT). […] Other assays known to those skilled in the art may also be used.
(§2) Inhibition of norepincphrinie (NE) reuptake was determined using rat hypothalamus as a tissue source and protryptiline as a reference compound. […] Inhibition of serotonin (5-HT) reuptake was determined using rat brain as a tissue source and imipramine as a reference compound.
(§3) wherein the end products observed were formed by the incorporation of [^3H]NE, [^3H]DA, and [^3H]5-HT into synaptosomes. Radioactivity was determined with a scintillation counter (Topcount, Packard) using a liquid scintillation cocktail (Microscint 0, Packard).
(§4) Raceinic bupropion and the bupropion metabolites were first tested in each assay at 10 μM in duplicate or triplicate. […] In each experiment, the respective reference compound was tested at eight concentrations in duplicate to obtain an inhibition curve in order to validate this experiment.
(§5) IC50 values and Hill coefficients (nH) were determined for the reference compounds and the test compounds (i.e., bupropion and metabolites of bupropion) by non-linear regression analysis of their inhibition curves. These parameters were obtained by Hill equation curve fitting.

[2] = biological target: T2, serotonin (5-HT) reuptake, rat brain (Rattus norvegicus, UniProt P31652); test: Inhibition of serotonin (5-HT) reuptake, [3H]5-HT incorporation into synaptosomes; details: [3H]5-HT 0.2 μCi/mL, 15 min/37° C., first tested at 10 μM
T2 construct: using rat brain as a tissue source; from tissue; host or cells: rat brain synaptosomes
Procedure: as §1, §2, §3, §4, §5

[3] = biological target: T3, dopamine (DA) reuptake, rat corpora striata (Rattus norvegicus, UniProt P23977); test: Inhibition of dopamine (DA) reuptake, [3H]DA incorporation into synaptosomes; details: for DA reuptake Hill coefficient (nH): Hill equation curve fitting; for pIC50: [3H]DA 0.2 μCi/mL, 15 min/37° C.
T3 construct: using rat corpora striata as a tissue source; from tissue; host or cells: rat corpora striata synaptosomes
Procedure: as §1, §2, §3, §4, §5

T1 sequence (Q63380 1-617): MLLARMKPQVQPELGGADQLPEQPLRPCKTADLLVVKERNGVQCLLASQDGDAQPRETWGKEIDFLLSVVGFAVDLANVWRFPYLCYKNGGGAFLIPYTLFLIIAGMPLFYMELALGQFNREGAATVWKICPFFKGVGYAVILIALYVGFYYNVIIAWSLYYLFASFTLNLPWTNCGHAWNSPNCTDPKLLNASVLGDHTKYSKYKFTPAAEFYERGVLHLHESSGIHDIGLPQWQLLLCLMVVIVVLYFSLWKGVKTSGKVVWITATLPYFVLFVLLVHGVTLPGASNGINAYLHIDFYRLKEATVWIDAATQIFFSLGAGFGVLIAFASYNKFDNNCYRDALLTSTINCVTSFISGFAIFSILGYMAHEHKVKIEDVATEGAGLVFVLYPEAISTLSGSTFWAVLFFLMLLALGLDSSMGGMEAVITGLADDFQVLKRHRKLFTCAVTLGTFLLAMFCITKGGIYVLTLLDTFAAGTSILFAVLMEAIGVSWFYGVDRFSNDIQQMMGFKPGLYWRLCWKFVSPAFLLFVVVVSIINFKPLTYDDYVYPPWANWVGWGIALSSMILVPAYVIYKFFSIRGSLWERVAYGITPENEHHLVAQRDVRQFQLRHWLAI
T3 sequence (P23977 whole entry): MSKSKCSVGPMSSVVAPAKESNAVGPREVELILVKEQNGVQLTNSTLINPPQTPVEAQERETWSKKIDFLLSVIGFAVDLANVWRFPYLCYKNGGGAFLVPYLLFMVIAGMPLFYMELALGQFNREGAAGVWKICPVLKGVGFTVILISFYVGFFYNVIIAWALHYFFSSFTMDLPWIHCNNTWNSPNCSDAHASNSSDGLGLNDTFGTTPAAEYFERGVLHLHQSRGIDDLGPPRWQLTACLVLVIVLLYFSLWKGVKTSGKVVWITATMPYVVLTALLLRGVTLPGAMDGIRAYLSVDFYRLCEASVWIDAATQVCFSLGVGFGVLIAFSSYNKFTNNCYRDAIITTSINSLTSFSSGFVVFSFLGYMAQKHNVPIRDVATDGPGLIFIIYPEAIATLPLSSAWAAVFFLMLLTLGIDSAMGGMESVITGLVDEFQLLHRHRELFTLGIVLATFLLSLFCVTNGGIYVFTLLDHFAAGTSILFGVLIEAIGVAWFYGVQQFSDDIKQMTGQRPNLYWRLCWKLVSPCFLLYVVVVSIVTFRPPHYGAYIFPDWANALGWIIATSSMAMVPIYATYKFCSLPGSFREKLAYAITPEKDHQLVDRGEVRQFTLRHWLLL
T2 sequence (P31652 whole entry): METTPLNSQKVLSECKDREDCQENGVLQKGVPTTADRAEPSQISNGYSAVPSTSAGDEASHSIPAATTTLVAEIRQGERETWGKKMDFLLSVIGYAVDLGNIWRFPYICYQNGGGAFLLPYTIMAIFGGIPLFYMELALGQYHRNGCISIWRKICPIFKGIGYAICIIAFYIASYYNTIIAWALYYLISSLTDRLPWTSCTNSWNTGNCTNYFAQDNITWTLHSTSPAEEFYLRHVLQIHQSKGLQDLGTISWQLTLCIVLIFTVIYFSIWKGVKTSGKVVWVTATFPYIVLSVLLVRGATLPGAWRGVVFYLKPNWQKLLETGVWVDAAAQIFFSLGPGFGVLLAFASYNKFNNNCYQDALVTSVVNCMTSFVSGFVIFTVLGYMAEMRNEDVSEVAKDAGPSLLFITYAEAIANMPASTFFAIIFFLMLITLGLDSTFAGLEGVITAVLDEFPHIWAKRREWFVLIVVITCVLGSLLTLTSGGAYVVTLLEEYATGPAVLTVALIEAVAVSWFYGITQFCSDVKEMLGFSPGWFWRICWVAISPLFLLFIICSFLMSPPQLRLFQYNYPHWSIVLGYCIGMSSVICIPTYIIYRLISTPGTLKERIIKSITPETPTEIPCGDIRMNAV

Structure (SMILES)	NE reuptake Hill coefficient (nH) [1]	pIC50 [1]	Inhibition of 5-HT reuptake (in words) [2]	Inhibition of dopamine reuptake (in words) [3]	DA reuptake Hill coefficient (nH) [3]	pIC50 [3]	pIC50 ([3]; listed as (S,S)-hydroxybupropion)
CC1NC(C)(C)COC1(O)c1cccc(Cl)c1 (racemic) [HBP(RS, RS), (RS,RS)-2-(3-chlorophenyl)-2-hydroxy-3,5,5-trimethyl-morpholinol]	(1.1)	6.12	–	–	–	–	–
CNCCCC1c2ccccc2C=Cc2ccccc21 [protriptyline]	2.6 and 1.4	–	–	–	–	–	–
C[C@@H]1NC(C)(C)CO[C@@]1(O)c1cccc(Cl)c1 [HBP(S, S)]	(0.8)	6.64	does not measurably inhibit serotonin uptake	does not significantly inhibit dopamine reuptake	(1.0)	5.85	~5.85
CC(NC(C)(C)C)C(=O)c1cccc(Cl)c1 (racemic) [BP(±), (±)1-(3-chlorophenyl)-2-[(1,1-dimethylethyl)amino]-1-propanone, reference compound]	(>3)	~6.13 and 6.13	–	–	(0.9)	~6.53 and 6.53	–
